Here are results for 26 compounds from patent US12264139B2, “Aryl sulfonamides as BLT1 antagonists” (Merck Sharp & Dohme LLC, priority 2015, dated 2025).

Structures are written as SMILES.

Broadly, the EC50 is the midpoint of the concentration-response curve.

In the assay the target is T1, human BLT1 receptor (Homo sapiens, UniProt Q15722).
T1 construct: expressed in transfected cells; host or cells: HEK293
T1 sequence (Q15722 whole entry): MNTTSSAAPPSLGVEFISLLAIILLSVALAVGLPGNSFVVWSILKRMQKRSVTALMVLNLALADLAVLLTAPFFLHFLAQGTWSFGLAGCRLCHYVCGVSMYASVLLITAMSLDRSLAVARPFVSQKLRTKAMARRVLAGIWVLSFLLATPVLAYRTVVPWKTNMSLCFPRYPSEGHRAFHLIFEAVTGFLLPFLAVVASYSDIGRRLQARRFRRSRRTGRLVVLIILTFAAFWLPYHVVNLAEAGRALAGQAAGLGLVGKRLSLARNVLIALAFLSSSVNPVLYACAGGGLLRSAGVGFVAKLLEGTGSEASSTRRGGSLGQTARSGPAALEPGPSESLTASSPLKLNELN
Kind of assay: BLT-1 cAMP Assay. The format is cell-based. The following applies: HEK293 cells recombinantly expressing human BLT1; antagonist activity vs forskolin 4 μM and LTB4 2 nM; cAMP (CisBio kit). The protocol: The ability of compounds to antagonize the human BLT1 receptor was determined using a kit to measure changes in intracellular cyclic AMP levels (cAMP dynamic assay kit, Cisbio Cat. No. 62AM4PEC). […] The cell suspension was centrifuged at 200×g for 10 min and then resuspended in fresh assay medium to a density of 2.5×10^5 cells/mL. […] All subsequent liquid additions were performed using a BIORAPTR (FRD; Beckman Coulter). Next, 5 μL of cell suspension was added and incubated for 20 min. at 37° C. and 5% CO2 in a humidified plastic tray.
The levels of cAMP were detected using the CisBio kit following the manufacturer's instructions: cAMP-d2 vial was reconstituted with distilled water and then diluted accordingly with conjugate & lysis buffer. 5 µL of cAMP-d2 working solution was added to all of the wells of the assay plate. cAMP-Cryptate vial was reconstituted with distilled water and then diluted accordingly with conjugate & lysis buffer. 5 µL of cAMP-Cryptate working solution were added to the assay plate. The assay plate was shaken for 3 minutes and incubated at room temperature for 45 minutes, then read on Perkin Elmer Envision. cAMP standard curve and fit data were plotted using a 4 parameter dose response curve fitting algorithm to fit curve. […] After normalization to treated and untreated controls, the percent effect of signal at each compound concentration was calculated. The plot of percent effect versus the log of compound concentration was fit with a 4-parameter concentration response equation to calculate EC50 values.
Take `O=S(=O)(Nc1ccccc1-c1ccc2c(c1)OCC(Cc1ccccc1)C2O)C(F)(F)F` (racemic) [Example 2, N-(2-((3,4-Rac-trans)-3-benzyl-4-hydroxychroman-7-yl)phenyl)-1,1,1-trifluoromethanesulfonamide]: the EC50 is 31 nM.
The value for `O=S(=O)(Nc1ccccc1-c1ccc2c(c1)OC[C@@H](Cc1ccc(-c3ccccc3)cc1)[C@H]2O)C(F)(F)F` (racemic) [Example 3, N-(2-((3,4-Rac-cis)-3-([1,1′-biphenyl]-4-ylmethyl)-4-hydroxychroman-7-yl)phenyl)-1,1,1-trifluoromethanesulfonamide] was 2290 nM; that for `O=S(=O)(Nc1ccccc1-c1ccc2c(c1)OC[C@@H](Cc1ccc(-c3ccccc3)cc1)[C@@H]2O)C(F)(F)F` (racemic) [Example 4, N-(2-((3,4-Rac-trans)-3-([1,1′-biphenyl]-4-ylmethyl)-4-hydroxychroman-7-yl)phenyl)-1,1,1-trifluoromethanesulfonamide] was 6 nM; that for `O=S(=O)(Nc1ccccc1-c1ccc2c(c1)OCC(Cc1ccc(-c3ccccc3)s1)C2O)C(F)(F)F` (racemic) [Example 5, 1,1,1-Trifluoro-N-(2-((3,4-rac-trans)-4-hydroxy-3-((5-phenylthiophen-2-yl)methyl)chroman-7-yl)phenyl)methanesulfonamide] was 9 nM.
Take `O=S(=O)(Nc1ccccc1-c1ccc2c(c1)OCC(Cc1cc[nH]n1)C2O)C(F)(F)F` (racemic) [Example 6, N-(2-((3,4-Rac-trans)-3-((1H-pyrazol-3-yl)methyl)-4-hydroxychroman-7-yl)phenyl)-1,1,1-trifluoromethanesulfonamide]: the EC50 was 240 nM.
The value for `O=S(=O)(Nc1ccccc1-c1ccc2c(c1)OCC(Cc1cccnc1)C2O)C(F)(F)F` (racemic) [Example 7, 1,1,1-Trifluoro-N-(2-((3,4-rac-trans)-4-hydroxy-3-(pyridin-3-ylmethyl)chroman-7-yl)phenyl)methanesulfonamide] was 3510 nM; that for `O=S(=O)(Nc1ccccc1-c1ccc2c(c1)OCC(Cc1ccsc1)C2O)C(F)(F)F` (racemic) [Example 8, 1,1,1-Trifluoro-N-(2-((3,4-rac-trans)-4-hydroxy-3-(thiophen-3-ylmethyl)chroman-7-yl)phenyl)methanesulfonamide] was 21 nM; that for `O=S(=O)(Nc1ccccc1-c1ccc2c(c1)OC[C@@H](Cc1cncs1)[C@@H]2O)C(F)(F)F` (racemic) [Example 9, 1,1,1-Trifluoro-N-(2-((3,4-rac-trans)-4-hydroxy-3-(thiazol-5-ylmethyl)chroman-7-yl)phenyl)methanesulfonamide] was 269 nM.
The figure for `O=S(=O)(Nc1ccccc1-c1ccc2c(c1)OC[C@@H](Cc1cncs1)[C@H]2O)C(F)(F)F` (racemic) [Example 10, 1,1,1-Trifluoro-N-(2-((3,4-rac-cis)-4-hydroxy-3-(thiazol-5-ylmethyl)chroman-7-yl)phenyl)methanesulfonamide] is 4540 nM; for `Cc1ccc(CC2COc3cc(-c4ccccc4NS(=O)(=O)C(F)(F)F)ccc3C2O)nc1` (racemic) [Example 11, 1,1,1-Trifluoro-N-(2-((3,4-rac-trans)-4-hydroxy-3-((5-methylpyridin-2-yl)methyl)chroman-7-yl)phenyl)methanesulfonamide] it is 105 nM.
The figure for `O=S(=O)(Nc1ccccc1-c1ccc2c(c1)OCC(Cc1cn[nH]c1)C2O)C(F)(F)F` (racemic) [Example 12, N-(2-((3,4-Rac-trans)-3-((1H-pyrazol-4-yl)methyl)-4-hydroxychroman-7-yl)phenyl)-1,1,1-trifluoromethanesulfonamide] is 1650 nM; for `Cn1nccc1CC1COc2cc(-c3ccccc3NS(=O)(=O)C(F)(F)F)ccc2C1O` (racemic) [Example 13, 1,1,1-Trifluoro-N-(2-((3,4-rac-trans)-4-hydroxy-3-((1-methyl-1H-pyrazol-5-yl)methyl)chroman-7-yl)phenyl)methanesulfonamide] it is 185 nM.
`O=S(=O)(Nc1ccccc1-c1ccc2c(c1)OC[C@H](Cc1cn(-c3ccccc3)nn1)[C@H]2O)C(F)(F)F` (racemic) [Example 14, 1,1,1-Trifluoro-N-(2-{(rac-trans)-4-hydroxy-3-[(1-phenyl-1H-1,2,3-triazol-4-yl)methyl]-3,4-dihydro-2H-chromen-7-yl}phenyl)methanesulfonamide]: the EC50 was 101 nM.
The value for `O=S(=O)(Nc1ccccc1-c1ccc2c(c1)OC[C@H](Cc1ncco1)[C@H]2O)C(F)(F)F` (racemic) [Example 15, 1,1,1-Trifluoro-N-{2-[(rac-trans)-4-hydroxy-3-(1,3-oxazol-2-ylmethyl)-3,4-dihydro-2H-chromen-7-yl]phenyl}methanesulfonamide] was 994 nM; that for `Cc1nc(C[C@@H]2COc3cc(-c4ccccc4NS(=O)(=O)C(F)(F)F)ccc3[C@H]2O)cs1` (racemic) [Example 16, 1,1,1-Trifluoro-N-(2-{(rac-trans)-4-hydroxy-3-[(2-methyl-1,3-thiazol-4-yl)methyl]-3,4-dihydro-2H-chromen-7-yl}phenyl)methanesulfonamide] was 826 nM.
The value for `O=S(=O)(Nc1ccccc1-c1ccc2c(c1)OC[C@H](Cc1ncccc1F)[C@H]2O)C(F)(F)F` (racemic) [Example 19, 1,1,1-Trifluoro-N-(2-{(rac-trans)-3-[(3-fluoropyridin-2-yl)methyl]-4-hydroxy-3,4-dihydro-2H-chromen-7-yl}phenyl)methanesulfonamide] was 1600 nM; that for `Cc1cccc(C[C@H]2COc3cc(-c4ccccc4NS(=O)(=O)C(F)(F)F)ccc3[C@@H]2O)n1` (racemic) [Example 20, 1,1,1-Trifluoro-N-(2-{(rac-trans)-4-hydroxy-3-[(6-methylpyridin-2-yl)methyl]-3,4-dihydro-2H-chromen-7-yl}phenyl)methanesulfonamide] was 215 nM; that for `Cc1nnc(C[C@H]2COc3cc(-c4ccccc4NS(=O)(=O)C(F)(F)F)ccc3[C@@H]2O)s1` (racemic) [Example 23, 1,1,1-Trifluoro-N-(2-{(rac-trans)-4-hydroxy-3-[(5-methyl-1,3,4-thiadiazol-2-yl)methyl]-3,4-dihydro-2H-chromen-7-yl}phenyl)methanesulfonamide] was 32 nM.
The figure for `O=S(=O)(Nc1ccccc1-c1ccc2c(c1)OC[C@H](Cc1csc(-c3ccccc3)n1)[C@H]2O)C(F)(F)F` (racemic) [Example 24, 1,1,1-Trifluoro-N-(2-((rac-trans)-4-hydroxy-3-((2-phenylthiazol-4-yl)methyl)chroman-7-yl)phenyl)methanesulfonamide] is 329 nM; for `O=S(=O)(Nc1ccccc1-c1ccc2c(c1)OC[C@H](Cc1cnccn1)[C@H]2O)C(F)(F)F` (racemic) [Example 27, 1,1,1-Trifluoro-N-{2-[(rac-trans)-4-hydroxy-3-(pyrazin-2-ylmethyl)-3,4-dihydro-2H-chromen-7-yl]phenyl}methanesulfonamide] it is 209 nM.
As for `O=S(=O)(Nc1ccccc1-c1ccc2c(c1)OC[C@H](Cc1cccnn1)[C@H]2O)C(F)(F)F` (racemic) [Example 28, 1,1,1-Trifluoro-N-{2-[(rac-trans)-4-hydroxy-3-(pyridazin-3-ylmethyl)-3,4-dihydro-2H-chromen-7-yl]phenyl}methanesulfonamide], the EC50 turned out to be 2140 nM.
As to `O=S(=O)(Nc1ccccc1-c1ccc2c(c1)OC[C@H](Cc1ccc(F)cn1)[C@H]2O)C(F)(F)F` (racemic) [Example 29, 1,1,1-Trifluoro-N-(2-((rac-trans)-3-((5-fluoropyridin-2-yl)methyl)-4-hydroxychroman-7-yl)phenyl)methanesulfonamide], the 50% effective concentration (EC50) was 464 nM.
The value for `CS(=O)(=O)Nc1ccccc1-c1ccc2c(c1)OCC(Cc1ccccn1)C2O` (racemic) [Example 30, N-(2-((3,4-Rac-trans)-4-hydroxy-3-(pyridin-2-ylmethyl)chroman-7-yl)phenyl)methanesulfonamide] was 414 nM; that for `O=S(=O)(Nc1ccccc1-c1ccc2c(c1)OC[C@@H](Cc1cscn1)[C@H]2O)C(F)(F)F` (racemic) [Example 31, 1,1,1-trifluoro-N-(2-(3,4-rac-cis)-4-hydroxy-3-(thiazol-4-ylmethyl)chroman-7-yl)phenyl)methanesulfonamide] was 1370 nM; that for `O=S(=O)(Nc1ccccc1-c1ccc2c(c1)OC[C@@H](Cc1cscn1)[C@@H]2O)C(F)(F)F` (racemic) [Example 32, 1,1,1-trifluoro-N-(2-((3,4-rac-trans)-4-hydroxy-3-(thiazol-4-ylmethyl)chroman-7-yl)phenyl)methanesulfonamide] was 17 nM.
The value for `O=S(=O)(Nc1ccccc1-c1ccc2c(c1)OCC(Cc1cccs1)C2O)C(F)(F)F` (racemic) [Example 33, 1,1,1-Trifluoro-N-(2-((3,4-rac-trans)-4-hydroxy-3-(thiophen-2-ylmethyl)chroman-7-yl)phenyl)methanesulfonamide] was 53 nM.
